# Assay results from article PMC8019204 (Cancer Science, 2021).
# Several values for one entry are separate records, joined by “and”; a condition that tells them apart may be missing. Identical values can stand only once. Like-named read-outs stand apart in the source and are kept apart here.
# Key:
# [1] = GEOMETRY mono-1: safety; format: in vivo, human
# [2] = system: METΔex14‐mutated NSCLC
# [3] = system: METΔex14‐mutated NSCLC; details: global population, cited from earlier work
# [4] = GEOMETRY mono-1: plasma pharmacokinetics of capmatinib; format: in vivo, human; details: for AUC(0-t): AUC0–12, geometric mean (CV%)
# [5] = system: MET‐amplified NSCLC
# [6] = single agent; Japanese patients with advanced solid tumors; cited from earlier work
# [7] = system: MET‐amplified NSCLC; details: global population, cited from earlier work
# [8] = 1L group, the one patient with PR
# [9] = 2/3L, cohort 1a GCN ≥ 10 (n = 11)
# [10] = 2/3L, cohort 1b GCN ≥ 6 to <10 (n = 1)
# [11] = 2/3L, cohort 2 GCN ≥ 4 to <6 (n = 10)
smiles,measurement,setting,value
"CNC(=O)c1ccc(-c2cnc3ncc(Cc4ccc5ncccc5c4)n3n2)cc1F [capmatinib, Capmatinib]",Treatment‐related AE: Nausea,[1]; 45 Japanese patients,35.6%
same,Treatment‐related AE: Oedema peripheral,[1]; 45 Japanese patients,31.1%
same,Treatment‐related AE: blood creatinine increased,[1]; 45 Japanese patients,53.3%
same,Capmatinib interrupted due to AEs,[1]; METΔex14 1L group (n = 2),both
same,"Discontinuation from treatment phase, reason: Adverse event",[1]; METΔex14 1L group (n = 2),1 (50.0) n (%) of patients
same,Capmatinib interrupted due to AEs,[1]; METΔex14 2/3L group (n = 11),10 patients
same,"Discontinuation from treatment phase, reason: Adverse event",[1]; METΔex14 2/3L group (n = 11),3 (27.3) n (%) of patients
same,Dose reductions due to AEs,[1]; METΔex14 2/3L group (n = 11),eight
same,AEs leading to permanent discontinuation,[1]; all patients (n = 45),8 (17.8) n (%) of patients
same,AEs requiring dose adjustment/interruption,[1]; all patients (n = 45),30 (66.7) n (%) of patients
same,Any AE,[1]; all patients (n = 45),45 (100.0) n (%) of patients
same,Any grade 3/4 AE,[1]; all patients (n = 45),33 (73.3) n (%) of patients
same,Any grade 3/4 serious AE,[1]; all patients (n = 45),18 (40.0) n (%) of patients
same,Any serious AE,[1]; all patients (n = 45),22 (48.9) n (%) of patients
same,Any treatment‐related grade 3/4 serious AE,[1]; all patients (n = 45),9 (20.0) n (%) of patients
same,Any treatment‐related serious AE,[1]; all patients (n = 45),12 (26.7) n (%) of patients
same,Grade 3/4 AEs leading to permanent discontinuation,[1]; all patients (n = 45),4 (8.9) n (%) of patients
same,Grade 3/4 AEs requiring dose adjustment/interruption,[1]; all patients (n = 45),22 (48.9) n (%) of patients
same,Any grade 3/4 treatment‐related AE,"[1]; all patients (n = 45), Table 4",25 (55.6) n (%) of patients
same,Any treatment‐related AE,"[1]; all patients (n = 45), Table 4",44 (97.8) n (%) of patients
same,Deaths,"[1]; all patients (n = 45), considered related to NSCLC",1 (2.2) n (%) of patients
same,Treatment‐related AE (investigations): ALT increased,"[1]; any grade, n = 45",6 (13.3) n (%) of patients
same,Treatment‐related AE (investigations): AST increased,"[1]; any grade, n = 45",6 (13.3) n (%) of patients
same,Treatment‐related AE (investigations): Amylase increased,"[1]; any grade, n = 45",8 (17.8) n (%) of patients
same,Treatment‐related AE (investigations): Blood ALP increased,"[1]; any grade, n = 45",4 (8.9) n (%) of patients
same,Treatment‐related AE (investigations): Blood creatinine increased,"[1]; any grade, n = 45",24 (53.3) n (%) of patients
same,Treatment‐related AE (investigations): Lipase increased,"[1]; any grade, n = 45",6 (13.3) n (%) of patients
same,Treatment‐related AE (investigations): Neutrophil count decreased,"[1]; any grade, n = 45",5 (11.1) n (%) of patients
same,Treatment‐related AE (investigations): Platelet count decreased,"[1]; any grade, n = 45",8 (17.8) n (%) of patients
same,Treatment‐related AE (investigations): WBC count decreased,"[1]; any grade, n = 45",4 (8.9) n (%) of patients
same,Treatment‐related AE (investigations): γGT increased,"[1]; any grade, n = 45",3 (6.7) n (%) of patients
same,Treatment‐related AE: Anaemia,"[1]; any grade, n = 45",3 (6.7) n (%) of patients
same,Treatment‐related AE: Cellulitis,"[1]; any grade, n = 45",3 (6.7) n (%) of patients
same,Treatment‐related AE: Constipation,"[1]; any grade, n = 45",5 (11.1) n (%) of patients
same,Treatment‐related AE: Decreased appetite,"[1]; any grade, n = 45",10 (22.2) n (%) of patients
same,Treatment‐related AE: Diarrhoea,"[1]; any grade, n = 45",8 (17.8) n (%) of patients
same,Treatment‐related AE: Dry skin,"[1]; any grade, n = 45",4 (8.9) n (%) of patients
same,Treatment‐related AE: Fatigue,"[1]; any grade, n = 45",4 (8.9) n (%) of patients
same,Treatment‐related AE: Headache,"[1]; any grade, n = 45",3 (6.7) n (%) of patients
same,Treatment‐related AE: Hypoalbuminaemia,"[1]; any grade, n = 45",4 (8.9) n (%) of patients
same,Treatment‐related AE: Malaise,"[1]; any grade, n = 45",3 (6.7) n (%) of patients
same,Treatment‐related AE: Nausea,"[1]; any grade, n = 45",16 (35.6) n (%) of patients
same,Treatment‐related AE: Oedema peripheral,"[1]; any grade, n = 45",14 (31.1) n (%) of patients
same,Treatment‐related AE: Pyrexia,"[1]; any grade, n = 45",7 (15.6) n (%) of patients
same,Treatment‐related AE: Rash,"[1]; any grade, n = 45",5 (11.1) n (%) of patients
same,Treatment‐related AE: Vomiting,"[1]; any grade, n = 45",12 (26.7) n (%) of patients
same,Any treatment‐related AE,"[1]; any grade, n = 45, Table 5",44 (97.8) n (%) of patients
same,Treatment‐related AE (investigations): ALT increased,"[1]; grade 3/4, n = 45",2 (4.4) n (%) of patients
same,Treatment‐related AE (investigations): AST increased,"[1]; grade 3/4, n = 45",2 (4.4) n (%) of patients
same,Treatment‐related AE (investigations): Amylase increased,"[1]; grade 3/4, n = 45",2 (4.4) n (%) of patients
same,Treatment‐related AE (investigations): Blood ALP increased,"[1]; grade 3/4, n = 45",0 n (%) of patients
same,Treatment‐related AE (investigations): Blood creatinine increased,"[1]; grade 3/4, n = 45",0 n (%) of patients
same,Treatment‐related AE (investigations): Lipase increased,"[1]; grade 3/4, n = 45",3 (6.7) n (%) of patients
same,Treatment‐related AE (investigations): Neutrophil count decreased,"[1]; grade 3/4, n = 45",3 (6.7) n (%) of patients
same,Treatment‐related AE (investigations): Platelet count decreased,"[1]; grade 3/4, n = 45",2 (4.4) n (%) of patients
same,Treatment‐related AE (investigations): WBC count decreased,"[1]; grade 3/4, n = 45",1 (2.2) n (%) of patients
same,Treatment‐related AE (investigations): γGT increased,"[1]; grade 3/4, n = 45",1 (2.2) n (%) of patients
same,Treatment‐related AE: Anaemia,"[1]; grade 3/4, n = 45",1 (2.2) n (%) of patients
same,Treatment‐related AE: Cellulitis,"[1]; grade 3/4, n = 45",1 (2.2) n (%) of patients
same,Treatment‐related AE: Constipation,"[1]; grade 3/4, n = 45",1 (2.2) n (%) of patients
same,Treatment‐related AE: Decreased appetite,"[1]; grade 3/4, n = 45",2 (4.4) n (%) of patients
same,Treatment‐related AE: Diarrhoea,"[1]; grade 3/4, n = 45",1 (2.2) n (%) of patients
same,Treatment‐related AE: Dry skin,"[1]; grade 3/4, n = 45",0 n (%) of patients
same,Treatment‐related AE: Fatigue,"[1]; grade 3/4, n = 45",0 n (%) of patients
same,Treatment‐related AE: Headache,"[1]; grade 3/4, n = 45",0 n (%) of patients
same,Treatment‐related AE: Hypoalbuminaemia,"[1]; grade 3/4, n = 45",0 n (%) of patients
same,Treatment‐related AE: Malaise,"[1]; grade 3/4, n = 45",1 (2.2) n (%) of patients
same,Treatment‐related AE: Nausea,"[1]; grade 3/4, n = 45",0 n (%) of patients
same,Treatment‐related AE: Oedema peripheral,"[1]; grade 3/4, n = 45",3 (6.7) n (%) of patients
same,Treatment‐related AE: Pyrexia,"[1]; grade 3/4, n = 45",0 n (%) of patients
same,Treatment‐related AE: Rash,"[1]; grade 3/4, n = 45",0 n (%) of patients
same,Treatment‐related AE: Vomiting,"[1]; grade 3/4, n = 45",1 (2.2) n (%) of patients
same,Any treatment‐related AE,"[1]; grade 3/4, n = 45, Table 5",25 (55.6) n (%) of patients
same,Patients who experienced at least one AE,"[1]; of 45 patients, cutoff September 18, 2019",45 patients
same,"Discontinuation from treatment phase, reason: Adverse event","[1]; overall Japanese cohort (n = 45), cutoff April 15, 2019",8 (17.8) n (%) of patients
same,Best overall response: CR,"[2]; 1L group (cohort 5b, n = 2)",0 n (%) of patients
same,Best overall response: Non‐CR/non‐PD,"[2]; 1L group (cohort 5b, n = 2)",0 n (%) of patients
same,Best overall response: PD,"[2]; 1L group (cohort 5b, n = 2)",0 n (%) of patients
same,Best overall response: PR,"[2]; 1L group (cohort 5b, n = 2)",1 (50.0) n (%) of patients
same,Best overall response: SD,"[2]; 1L group (cohort 5b, n = 2)",1 (50.0) n (%) of patients
same,Best overall response: Unknown,"[2]; 1L group (cohort 5b, n = 2)",0 n (%) of patients
same,DOR,[2]; [8],4.24 months
same,Decrease in lesion size,[2]; [8],76.5%
same,Time to confirmed PD after starting capmatinib,[2]; [8],168 days and 5.5 months
same,DCR (BIRC),[2]; 2/3L group (cohort 4),81.8%
same,Median PFS (BIRC),[2]; 2/3L group (cohort 4),4.70 months
same,ORR (BIRC),[2]; 2/3L group (cohort 4),36.4%
same,Best overall response: CR,"[2]; 2/3L group (cohort 4, n = 11)",0 n (%) of patients
same,Best overall response: Non‐CR/non‐PD,"[2]; 2/3L group (cohort 4, n = 11)",0 n (%) of patients
same,Best overall response: PD,"[2]; 2/3L group (cohort 4, n = 11)",1 (9.1) n (%) of patients
same,Best overall response: PR,"[2]; 2/3L group (cohort 4, n = 11)",4 (36.4) n (%) of patients
same,Best overall response: SD,"[2]; 2/3L group (cohort 4, n = 11)",5 (45.5) n (%) of patients
same,Best overall response: Unknown,"[2]; 2/3L group (cohort 4, n = 11)",1 (9.1) n (%) of patients
same,Median DOR (95% CI),"[2]; 2/3L group (cohort 4, n = 11)",NE (3.35–NE)
same,Median TTR (95% CI),"[2]; 2/3L group (cohort 4, n = 11)",NE (1.38–NE)
same,Probability estimate at 3 mo for TTR (95% CI),"[2]; 2/3L group (cohort 4, n = 11)",36.4 (15.5‐70.3)
same,"Tumor shrinkage, deep response","[2]; 2/3L group, a patient with PR",~ 80%
same,Brain response per independent neuroradiologist review,"[2]; 2/3L group, one patient with brain metastases, CT 12 weeks after starting capmatinib",partial resolution of brain lesions
same,"Tumor shrinkage, deep response",[2]; one patient in each group (1L and 2/3L),~ 80%
same,ORR by BIRC,"[3]; first‐line, 28 patients",68%
same,Median DOR in responders,[3]; first‐line,12.6 months
same,"Intracranial responses, share of patients",[3]; patients with evaluable brain metastases at baseline,about half
same,ORR by BIRC,"[3]; second‐/third‐line, 69 patients",41%
same,Tumor shrinkage,"[3]; second‐/third‐line, in two patients",> 90%
same,Median DOR in responders,[3]; second‐/third‐line,9.7 months
same,Accumulation of exposure,"[4]; 400 mg twice daily, Japanese patients",1.41 fold
same,Accumulation of exposure,"[4]; 400 mg twice daily, overall study result",1.39 fold
same,"Racc AUC0–12 (accumulation ratio), geometric mean (CV%)","[4]; cycle 1, day 15 (steady state), 400 mg twice daily, fasting, Japanese patients",1.41
same,Time at which maximum concentration was reached after administration,"[4]; day 15, 400 mg twice daily, Japanese patients",≤ 1 h
same,half-life,"[4]; human, plasma, oral, 400 mg",6.54 h
same,AUC(0-t),"[4]; human, plasma, oral, 400 mg, cycle 1, day 1, 400 mg twice daily, fasting, Japanese patients",18200 ng·h/mL
same,AUC(0-t),"[4]; human, plasma, oral, 400 mg, cycle 1, day 15 (steady state), 400 mg twice daily, fasting, Japanese patients",27000 ng·h/mL
same,Cmax,"[4]; human, plasma, oral, 400 mg, Cmax, geometric mean (CV%), cycle 1, day 15 (steady state), 400 mg twice daily, fasting, Japanese patients",5920 ng/mL
same,Median DOR,"[5]; 1L, cohort 5a GCN ≥ 10",8.2 months
same,ORR (BIRC),"[5]; 1L, cohort 5a GCN ≥ 10 (n = 2)",100%
same,Median DOR,"[5]; 2/3L, cohort 1a GCN ≥ 10",8.3 months
same,DCR (BIRC),[5]; [9],81.8%
same,ORR (BIRC),[5]; [9],45.5%
same,DCR (BIRC),[5]; [10],100.0%
same,ORR (BIRC),[5]; [10],0%
same,Median DOR,"[5]; 2/3L, cohort 2 GCN ≥ 4 to <6",9.7
same,DCR (BIRC),[5]; [11],50.0%
same,ORR (BIRC),[5]; [11],10%
same,DCR (BIRC),"[5]; 2/3L, cohort 3 GCN < 4 (n = 6)",66.7%
same,ORR (BIRC),"[5]; 2/3L, cohort 3 GCN < 4 (n = 6)",16.7%
same,Maximum tolerated dose,[6],not identified
same,Median DOR,"[7]; GCN ≥10, first‐line",7.5 months
same,Median DOR,"[7]; GCN ≥10, second/third‐line",8.3 months
